Assay results from US6605645B2, “Linear polyamine compounds and polyamine-based anti-tumor agents” (Riken, priority 1998, dated 2003).
Where two headings read alike, the source gives them in different places.

How the values were obtained:
Type in all cases: cell-based
[1] = tested on: stomach cancer (St) cell lines; test: HCC panel drug sensitivity test, stomach cancer lines; details: Homo sapiens
Description: (§1) For the assay of anticancer effect, used was an HCC panel comprising 39 cell lines in total: 7 cell lines of lung cancer (Lu), 6 cell lines of stomach cancer (St), 5 cell lines of colon cancer (Co), 5 cell lines of ovarian cancer (Ov), 6 cell lines of brain tumor (CNS), 5 cell lines of breast cancer (Br), 2 cell lines of renal cancer (Re), 2 cell lines of prostate cancer (xPg) and 1 cell line of melanoma (Me). These were used as one panel, and an in-vitro drug sensitivity test was performed by using the above three compounds to obtain sensitivity patterns against each compound (mean graphs mentioned below). Further, the mean graphs obtained as the results of the above sensitivity test were compared with data in a database.
(§2) Specifically, the drug sensitivity test was performed according to the following procedures. The above 39 cancer cell lines were seeded to a 96-well plate and incubated overnight. On the following day, sample solutions each containing each of the above three compounds (5 doses, usually from 10^-4 M to 10^-8 M with 1 log intervals, the highest concentration is referred to as “High Conc”) were added to the above 96-well plate and cultured for further 2 days. Subsequently, the cell proliferation was calorimetrically determined in the obtained plate by using Sulfo Rhodamine B.
(§3) In the data analysis, GI50 (concentration at which cell proliferation is inhibited to 50% of a control) is obtained as a parameter for data analysis using the cell number immediately before exposure of cells to the test compound (Time Zero) as a standard. Specifically, the obtained data is used for the following calculation:
(§4) 1) If a mean optical density value at each concentration (OD test) is larger than the OD value at Time Zero (Tz), i.e., OD test >Tz, then percent growth (PG %)=((OD test−Tz)/(OD control−Tz))×100, wherein 1 OD control is the OD value of control. On the contrary, if OD test <Tz, then PG %=((OD test−Tz)/Tz)×100. In this case, PG % is a negative value.
(§5) 2) The above PG % values obtained for each cell line are plotted against concentrations (logarithm) according to the organ cancer type. The concentration at the point where each curve intersects with a horizontal line, provided at PG 50%, corresponds to log GI50.

[2] = tested on: lung cancer (Lu) cell lines; test: HCC panel drug sensitivity test, lung cancer lines; details: Homo sapiens
Description: as §1, §2, §3, §4, §5

[3] = tested on: ovarian cancer (Ov) cell lines; test: HCC panel drug sensitivity test, ovarian cancer lines; details: Homo sapiens
Description: as §1, §2, §3, §4, §5

[4] = tested on: breast cancer (Br) cell lines; test: HCC panel drug sensitivity test, breast cancer lines; details: Homo sapiens
Description: as §1, §2, §3, §4, §5

[5] = tested on: brain tumor (CNS) cell lines; test: HCC panel drug sensitivity test, brain tumor lines; details: Homo sapiens
Description: as §1, §2, §3, §4, §5

[6] = tested on: HCC panel comprising 39 cell lines; test: HCC panel in-vitro drug sensitivity test (Sulfo Rhodamine B), anticancer effect on cultured human cancer cell lines; details: for Delta / Range: HCC panel log GI50; for Delta: criterion ≧ 0.5; for Range: criterion ≧ 1.0; for evaluation as anticancer agent (criteria A-D: novelty, MG-MID, Delta/Range, COMPARE): HCC panel mean graph evaluation; for GI50: Homo sapiens
Description: The anticancer effect of each compound was determined by using the obtained concentration.
as §1, §2
The obtained data of the measurement results are shown as mean graphs. Mean graphs (also referred to as fingerprints) visually expresses effective concentration deviations of a sample substance against individual cancer cell lines so that the sensitivity of each cancer cell line against the sample can be recognized at a glance. The mean graph is also referred to as fingerprint because it represents a pattern unique to each drug.
as §3, §4, §5
3) Then, “mean graphs” are created. Mean log GI50 values are obtained for all of the assayed cell lines and referred to as mean graph midpoints (MG-MID). A difference between each of the mean values and the log GI50 value for each cell line is obtained (that is, GI50 for each cell line is represented as a logarithmic value of a multiple or an aliquot of the mean value). The resulting differences are depicted as bar charts extending a left or right side from the center line of mean log GI50 (scale 0) to obtain a mean graph. The higher differential sensitivity a cell line has, the longer the bar extends to the right. One scale corresponds to 1 log. The value of “Delta” provided at the bottom of the mean graph represents the difference between the value for the most sensitive cell line and the mean value. The value of “Range” provided below “Delta” represents the difference between the log GI50 values of the most sensitive cell line and the least sensitive one. […]

melanoma (Me) cell line = test: HCC panel drug sensitivity test, melanoma line; details: Homo sapiens; LOX-IMVI (Me)
Description: as §1
(§6) Specifically, the drug sensitivity test was performed according to the following procedures. The above 39 cancer cell lines were seeded to a 96-well plate and incubated overnight. On the following day, sample solutions each containing each of the above three compounds (5 doses, usually from 10^-4 M to 10^-8 M with 1 log intervals, the highest concentration is referred to as “High Conc”) were added to the above 96-well plate and cultured for further 2 days. Subsequently, the cell proliferation was calorimetrically determined in the obtained plate by using Sulfo Rhodamine B. […]

[7] = tested on: colon cancer (Co) cell lines; test: HCC panel drug sensitivity test, colon cancer lines; details: Homo sapiens
Description: as §1, §2, §3, §4, §5

[8] = tested on: prostate cancer (xPg) cell lines; test: HCC panel drug sensitivity test, prostate cancer lines; details: Homo sapiens; DU-145 (xPg)
Description: as §1, §6

[9] = DMS-114, DMS114 (Lu), read-out: log GI50 (converted)
[10] = DMS-273, DMS273 (Lu), read-out: log GI50 (converted)
[11] = A549 (Lu), read-out: log GI50 (converted)
[12] = NCI-H23 (Lu), read-out: log GI50 (converted)
[13] = NCI-H226 (Lu), read-out: log GI50 (converted)
[14] = NCI-H460 (Lu), read-out: log GI50 (converted)
[15] = NCI-H522 (Lu), read-out: log GI50 (converted)
[16] = OVCAR-3 (Ov), read-out: log GI50 (converted)
[17] = OVCAR-4 (Ov), read-out: log GI50 (converted)
[18] = OVCAR-5 (Ov), read-out: log GI50 (converted)
[19] = OVCAR-8 (Ov), read-out: log GI50 (converted)
[20] = SF-268 (CNS), read-out: log GI50 (converted)
[21] = SF-539 (CNS), read-out: log GI50 (converted)
[22] = SNB-75 (CNS), read-out: log GI50 (converted)
[23] = 48 h, logarithmic values of molar concentration, for many cancer cell lines of the HCC panel, cultured 2 days, Sulfo Rhodamine B, read-out: log GI50 (concentration at which cell proliferation is inhibited to 50% of the control) (converted)
[24] = mean over HCC panel, criterion <−5, read-out: MG-MID (log GI50) (converted)

SMILES: C(CCCNCCCCNCC1CC1)CCNCCCCNCC1CC1 [BCPM464, 1,16-bis(cyclopropylmethylamino)-5,12-diazahexadecane]
- GI50 ([1]; MKN-1, MKN1 (St)): 7.24 µM
- GI50 ([1]; MKN-7, MKN7 (St)): 4.17 µM
- GI50 ([1]; MKN-28, MKN28 (St)): 4.68 µM
- GI50 ([1]; MKN-45, MKN45 (St)): 6.46 µM
- GI50 ([1]; St-4 (St)): 6.46 µM
- GI50 [2, 9]: 4.37 µM
- GI50 [2, 10]: 4.37 µM
- GI50 [2, 11]: 2.82 µM
- GI50 [2, 12]: 3.55 µM
- GI50 [2, 13]: 7.24 µM
- GI50 [2, 14]: 9.77 µM
- GI50 [2, 15]: 1.82 µM
- GI50 [3, 16]: 3.02 µM
- GI50 [3, 17]: 2.88 µM
- GI50 [3, 18]: 4.37 µM
- GI50 [3, 19]: 5.75 µM
- GI50 ([4]; HBC4, HBC-4 (Br)): 6.92 µM
- GI50 ([4]; HBC5, HBC-5 (Br)): 0.891 µM
- GI50 ([4]; MCF7, MCF-7 (Br)): 13.8 µM
- GI50 ([4]; BSY-1 (Br)): 3.55 µM
- GI50 [5, 20]: 87.1 µM
- GI50 [5, 21]: 3.16 µM
- GI50 [5, 22]: 3.31 µM
- GI50 ([5]; U251 (CNS), read-out: log GI50 (converted)): 60.3 µM
- Delta [6]: 1.19
- Range [6]: 2.05
- evaluation as anticancer agent (criteria A-D: novelty, MG-MID, Delta/Range, COMPARE) [6]: the most interesting
- GI50 [6, 23]: < 100 µM
- GI50 [6, 24]: 13.8 µM
- GI50 (melanoma (Me) cell line): 6.31 µM
- GI50 ([7]; HCC 2998, HCC2998 (Co)): 63.1 µM
- GI50 ([7]; HCT-116 (Co)): 6.76 µM
- GI50 ([7]; HT-29 (Co)): 23.4 µM

SMILES: C(CCCNCCCCNCC1CC1)CCCNCCCCNCC1CC1 [BCPM474]
- GI50 ([1]; MKN-1, MKN1 (St)): 12 µM
- GI50 ([1]; MKN-7, MKN7 (St)): 4.37 µM
- GI50 ([1]; MKN-28, MKN28 (St)): 5.25 µM
- GI50 ([1]; MKN-45, MKN45 (St)): 12 µM
- GI50 ([1]; MKN-74, MKN74 (St)): 47.9 µM
- GI50 ([1]; St-4 (St)): 6.92 µM
- GI50 [2, 9]: 3.8 µM
- GI50 [2, 10]: 4.17 µM
- GI50 [2, 11]: 2.82 µM
- GI50 [2, 12]: 4.37 µM
- GI50 [2, 13]: 9.12 µM
- GI50 [2, 14]: 16.6 µM
- GI50 [2, 15]: 3.24 µM
- GI50 [3, 16]: 1.66 µM
- GI50 [3, 17]: 4.17 µM
- GI50 [3, 18]: 5.37 µM
- GI50 [3, 19]: 2.75 µM
- GI50 ([3]; SK-OV-3 (Ov), read-out: log GI50 (converted)): 5.75 µM
- GI50 ([4]; HBC4, HBC-4 (Br)): 4.57 µM
- GI50 ([4]; HBC5, HBC-5 (Br)): 2.24 µM
- GI50 ([4]; MCF7, MCF-7 (Br)): 56.2 µM
- GI50 ([4]; BSY-1 (Br)): 7.08 µM
- GI50 [8]: 67.6 µM
- GI50 [5, 20]: 4.68 µM
- GI50 ([5]; SF-295 (CNS), read-out: log GI50 (converted)): 8.71 µM
- GI50 [5, 21]: 3.47 µM
- GI50 [5, 22]: 3.63 µM
- Delta [6]: 0.84
- Range [6]: 1.76
- evaluation as anticancer agent (criteria A-D: novelty, MG-MID, Delta/Range, COMPARE) [6]: the most interesting
- GI50 [6, 23]: < 100 µM
- GI50 [6, 24]: 11.5 µM
- GI50 (melanoma (Me) cell line): 30.9 µM
- GI50 ([7]; HCC 2998, HCC2998 (Co)): 10.2 µM
- GI50 ([7]; KM12, KM-12 (Co)): 28.2 µM
- GI50 ([7]; HCT-15 (Co)): 37.2 µM
- GI50 ([7]; HCT-116 (Co)): 6.92 µM
- GI50 ([7]; HT-29 (Co)): 8.71 µM

SMILES: CCNCCCCNCCCCCCCCNCCCCNCC [BET484, 1,18-bis(ethylamino)-5,14-diazaoctadecane]
- GI50 ([2]; A549, read-out: log GI50 (converted)): 16.2 µM
- GI50 ([2]; DMS-273, read-out: log GI50 (converted)): 3.02 µM
- GI50 ([3]; OVCAR-3, read-out: log GI50 (converted)): 20 µM
- GI50 ([3]; OVCAR-4, read-out: log GI50 (converted)): 5.89 µM
- GI50 ([3]; OVCAR-5, read-out: log GI50 (converted)): 72.4 µM
- GI50 ([5]; read-out: log GI50, SF-539 (CNS) (converted)): 7.94 µM
- GI50 ([5]; read-out: log GI50, SNB-75 (CNS) (converted)): 12.9 µM
- Delta [6]: 1.45
- Range [6]: 1.62
- evaluation as anticancer agent (criteria A-D: novelty, MG-MID, Delta/Range, COMPARE) [6]: the most interesting
- GI50 ([6]; 48 h, read-out: log GI50 (concentration at which cell proliferation is inhibited to 50% of the control) (converted)): < 100 µM
- GI50 ([6]; read-out: MG-MID (log GI50) (converted)): 67.6 µM
